Reference: patent US6743795B1, “3-nitropyridine derivaives and the pharmaceutical compositions containing said derivatives” (Dong Wha Pharm. Ind. Co. Ltd., priority 1999, dated 2004)
Where two headings read alike, the source gives them in different places.

How the values were obtained:
HBV = assay: Proliferation of HBV in HBV producing cell line HepG 2.2.15 (competitive PCR of culture supernatant); assay type: cell-based, Hepatitis B virus; settings: HepG 2.2.15, one week; for inhibition at 0.1 µg/mL / inhibition at 1 µg/mL / inhibition at 0.01 µg/mL: Hepatitis B virus, HepG2.2.15, 168 h, read-out: Inhibitory effect on the HBV proliferation: Inhibition activity on HBV-RT (%)
Procedure: <Experiment 2> Inhibitory Effect on the Proliferation of HBV in HBV Producing Cell Line
The following experiment was performed to determine inhibitory effects of compounds of formula 1 on the proliferation of HBV producing cell line.
To test for antiviral effect, replication and proliferation of HBV were measured in HepG 2.2.15, a human liver cancer cell line.
The cell concentration was adjusted to 1×10^5 cells/ml and 1 ml was added to each well of a 24-well cell culture plate, which was then kept in a culture box for 3-4 days at 37° C. under 5% CO2 until cells grew sufficiently, changing culture medium everyday. When the cells matured sufficiently, the test compounds were added to the final concentrations of 0.01, 0.1, and 1 μg/ml. One week after the addition of test compounds, the culture solution was centrifuged at 5,000 rpm for 10 min. 25 μl of supernatant was transferred to a new tube and 5 μl of lysis solution [0.54N NaOH, 0.06% NP40] was added to each tube. After keeping the tube at 37° C. for 1 hr, 30 μl of neutralizing solution [0.09N HCl 0.1MTris-HCl, pH7.4] was added as a reaction solution for competitive polymerase chain reaction (PCR).
PCR was performed using genetic sequence of HBV core protein as a matrix. PCR reaction was carried out by adding 1 unit of Taq polymerase enzyme to 25 pmol of each primer, 250 μM dNTP, 5 μl of PCR reaction solution [0.54N NaOH, 0. 06% NP40, 0.09N HCl, 0.1M Tris-HCl, pH 7.4].
DNA polymerized by PCR was electrophoresed on Agarose gel and quantitatively analyzed using an image analyzer (Gel Doc 1000, Bio-Rad) in order to evaluate the effect of compounds of the present invention on the reduction of HBV proliferation.
3TC (lamivudine) was used as a positive control at the same concentrations as those of the test compounds. The percentage of reduction in HBV proliferation was calculated using the group without test compound as a control and the results are represented in Table 4.

HBV polymerase = molecular target: T1, HBV polymerase (Hepatitis B virus genotype A2 subtype adw2, UniProt P03159); assay: In vitro reverse transcription activity of HBV polymerase (ELISA-type, DIG/biotin nucleotides); assay type: biochemical; settings: for inhibition at 0.01 µg/mL / inhibition at 0.1 µg/mL / inhibition at 1 µg/mL: read-out: Inhibition activity on HBV-RT (%)
T1 construct: made in house; host or cells: E. coli
Procedure: <Experiment 1> Inhibitory Effect on the In Vitro Activities of HBV Polymerase in Reverse Transcription
The following in vitro experiment was performed to determine the effect of the compounds of formula 1 on the activity of HBV polymerase during reverse transcription.
The present inventors submitted application for a patent concerning HBV polymerase genetically expressed in and separated from E.coli, the process of its preparation, and the method to measure the enzyme activities (KR 94-3918, KR 96-33998). In the present experiments HBV polymerase was used which had been expressed in E. coli as stated above.
The method used in the present invention to measure in vitro reverse transcribing activities of HBV polymerase is as follows. Basic principles are the same as for ELISA. Nucleotides with biotin or digoxigenin group attached are included as substrates and anti-DIG antibodies attached to peroxidase enzyme recognize the polymerized substrates.
To the wells coated with streptavidin, 20 μl of HBV polymerase, 20 μl of reaction mixture (10 μM each of DIG-UTP and Biotin-UTP, 46 mM Tris-HCl, 266 mM KCl, 27.5 mM MgCl2, 9.2 mM DTT substrate/primer nybrid), and 20 μl of test compound (added to 1, 0.1, and 0.01 μg/ml) were added and allowed to react at 22° C. for 15 hrs. During this reaction, HBV polymerase catalyzes DNA synthesis and digoxigenin and biotin attached to nucleotides form bonds with streptavidin coated on the bottom of wells. When the reaction was done, each well was washed with 250 μl of cleaning buffer (pH 7.0) for 30 seconds, which was repeated five times to remove remaining impurities. 200 μl of anti-DIG-POD antibody was added to each well and allowed to react for 1 hr at 37° C., and the wells were washed with cleaning buffer to remove impurities. 200 μl each of ABTS™, a substrate of peroxidase, was then added and allowed to react at room temperature for 30 min. Absorbance was measured at 405 nm using ELISA reader.
The percentage of reduction in HBV polymerase activities for reverse transcription was calculated using the group without test compound as a control and the results are shown in Table 3.

HepG2 cells = assay: Cytotoxicity test on HepG2 cells (MTT); assay type: cell-based
From the text: (§1) <Experiment 4> Cytotoxicity Test

[1] = Cytotoxicity test on HepG2 cells (MTT); assay type: cell-based; settings: human; HepG2 cells, MTT; read-out: Cytotoxicity on HepG2, IC50 (50% Inhibitory Concentration)
From the text: as §1

[2] = molecular target: T2, HIV reverse transcriptase (Human immunodeficiency virus type 1 group M subtype B, UniProt P03366); assay: In vitro HIV reverse transcriptase activity (non-radioactive RT assay kit); assay type: biochemical
T2 construct: purchased Boehringer Mannheim
Procedure: <Experiment 3> Inhibitory Effect on the In Vitro HIV Enzyme Activities in Reverse Transcription
The following in vitro experiments were done to determine the effect of compounds of formula 1 on the reduction of HIV enzyme activities in reverse transcription.
Non-radioactive reverse transcriptase assay kit (Boehringer Mannheim) was used in the measurement of in vitro transcriptase activities. 20 μl (40 ng) of HIV transcriptase and 20 μl of reaction mixture containing matrix-primer hybrid poly(A)oligo(dT)15, DIG(digoxigenin)-dUTP, biotin-dUTP, and TTP were added to wells coated with streptavidin. Test compounds were also added at the final concentrations of 0.1 and 1 μg/ml and allowed to react at 37° C. for 1 hr. At this time, DNA is formed from RNA by the action of HIV reverse transcriptase, forming bonds with streptavidin coated on the bottom of wells because of digoxigenin and biotin moieties attached to nucleotides.
When the reaction was completed, each well was washed with 250 μl of cleaning buffer (pH7.0) for 30sec. five times to remove remaining impurities. 200 μl of anti-DIG-POD […] was added to each well, allowed to react at 37° C. for 1 hr and washed as above to remove impurities. 200 μl of ABTS™, a substrate for peroxidase, was added to each well and allowed to react at room temperature for 30 min. Absorbance at 405 nm was then read for each solution using ELISA reader and used for quantitative determination of inhibitory effect on the HIV transcriptase activities. The percentage of reduction in the activities of HIV reverse transcriptase was calculated using the group without test compound as control and the results are represented in Table 5.

T1 sequence (P03159 whole entry): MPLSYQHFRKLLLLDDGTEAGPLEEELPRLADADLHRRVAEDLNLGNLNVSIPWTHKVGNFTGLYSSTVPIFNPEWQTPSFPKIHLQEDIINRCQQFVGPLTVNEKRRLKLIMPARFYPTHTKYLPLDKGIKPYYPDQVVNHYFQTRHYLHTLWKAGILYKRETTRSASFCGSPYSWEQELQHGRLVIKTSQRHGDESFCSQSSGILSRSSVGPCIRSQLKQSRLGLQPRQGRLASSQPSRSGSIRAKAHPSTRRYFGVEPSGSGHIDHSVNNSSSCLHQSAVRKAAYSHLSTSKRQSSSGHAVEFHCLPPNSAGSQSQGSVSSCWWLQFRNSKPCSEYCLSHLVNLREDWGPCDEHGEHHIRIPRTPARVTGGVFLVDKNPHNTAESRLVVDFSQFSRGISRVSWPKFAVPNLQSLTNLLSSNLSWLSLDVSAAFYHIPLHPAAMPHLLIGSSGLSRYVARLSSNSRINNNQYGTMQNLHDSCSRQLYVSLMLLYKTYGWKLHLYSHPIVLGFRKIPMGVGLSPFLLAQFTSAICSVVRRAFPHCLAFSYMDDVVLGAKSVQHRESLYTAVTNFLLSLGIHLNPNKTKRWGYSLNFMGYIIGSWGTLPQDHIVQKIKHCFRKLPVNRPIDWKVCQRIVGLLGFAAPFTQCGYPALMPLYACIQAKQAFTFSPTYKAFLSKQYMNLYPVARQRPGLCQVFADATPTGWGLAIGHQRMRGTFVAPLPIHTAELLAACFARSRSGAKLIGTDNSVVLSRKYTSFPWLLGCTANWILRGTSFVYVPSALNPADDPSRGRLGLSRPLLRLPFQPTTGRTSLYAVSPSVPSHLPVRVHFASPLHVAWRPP

Row | Compound | inhibition at 0.1 µg/mL (HBV; 0.1 μg/ml) [%] | inhibition at 1 µg/mL (HBV; 1 μg/ml) [%] | inhibition at 0.01 µg/mL (HBV polymerase; 0.01 μg/ml test compound) [%] | inhibition at 0.1 µg/mL (HBV polymerase; 0.1 μg/ml test compound) [%] | inhibition at 1 µg/mL (HBV polymerase; 1 μg/ml test compound) [%] | Cytotoxicity on HepG2, MCD (Minimal Cytotoxic Concentration) (HepG2 cells; HepG2 cells, MTT) [µg/mL] | IC50 [1] [µg/mL] | inhibition at 0.01 µg/mL (HBV; 0.01 μg/ml) [%] | Inhibitory effect on the activities of HIV reverse transcriptase: Inhibition activity on HIV-RT (%) ([2]; 0.1 μg/ml test compound) | Inhibitory effect on the activities of HIV reverse transcriptase: Inhibition activity on HIV-RT (%) ([2]; 1 μg/ml test compound) | melting point | Inhibitory effect on the HBV proliferation: Inhibition activity on HBV-RT (%) (HBV; 0.01 μg/ml) | Inhibitory effect on the HBV proliferation: Inhibition activity on HBV-RT (%) (HBV; 0.1 μg/ml) | Inhibitory effect on the HBV proliferation: Inhibition activity on HBV-RT (%) (HBV; 1 μg/ml) | Inhibition activity on HBV-RT (%) (HBV polymerase; 0.01 μg/ml test compound) | Inhibition activity on HBV-RT (%) (HBV polymerase; 0.1 μg/ml test compound) | Inhibition activity on HBV-RT (%) (HBV polymerase; 1 μg/ml test compound) | Cytotoxicity on HepG2, IC50 (50% Inhibitory Concentration) (HepG2 cells) [µg/mL] | Cytotoxicity on HepG2, MCD (Minimal Cytotoxic Concentration) (HepG2 cells) [µg/mL] | Cytotoxicity on HepG2, IC50 (50% Inhibitory Concentration) (HepG2 cells; HepG2 cells, MTT) [µg/mL]
1 | COc1ccc([N+](=O)[O-])c(Nc2ccc3cn[nH]c3c2)n1 [Example 2, 2-(1H-6-indazolylamino)-6-methoxy-3-nitropyridine] | 40 | 72 | 12 | 50 | 76 | 100 | > 100 |  |  |  |  |  |  |  |  |  |  |  |  | 
2 | O=[N+]([O-])c1ccc(NC(CO)CO)nc1Nc1ccc2[nH]ncc2c1 [Example 14, 6-[bis(hydroxymethyl)methylamino)-2-(1H-5-indazolylamino)-3-nitropyridine] | 41 | 80 | 30 | 49 | 85 |  |  | 22 | 44 | 59 | > 270 °C |  |  |  |  |  |  |  |  | 
3 | 6-ethyl-(2-hydroxyethyl)amino-2-(1H-5-indazolylamino)-3-nitropyridine [Example 11] |  |  |  |  |  |  |  |  | 46 | 67 |  | 20 | 45 | 83 | 35 | 60 | 85 | >100 | 100 | 
4 | CC(C)Nc1ccc([N+](=O)[O-])c(Nc2ccc3cn[nH]c3c2)n1 [Example 6, 2-(1H-6-indazolylamino)-6-isopropyl amino-3-nitropyridine] |  |  |  |  |  | 100 |  |  | 50 | 69 |  | 33 | 72 | 90 | 49 | 76 | 91 |  |  | >100
5 | C[C@@H](CCO)Nc1ccc([N+](=O)[O-])c(Nc2ccc3[nH]ncc3c2)n1 [Example 12, 6-[(1S)-1-(hydroxyethyl)ethylamino]-2-(1H-5-indazolylamino)-3-nitropyridine] | 48 | 85 | 38 | 56 | 90 |  |  | 29 | 40 | 64 | > 270 °C |  |  |  |  |  |  |  |  | 
6 | O=[N+]([O-])c1ccc(NCc2cccnc2)nc1Nc1ccc2cn[nH]c2c1 [Example 20, 2-(1H-6-indazolylamino)-3-nitro-6-(3-pyridyl)methylaminopyridine] |  |  | 21 | 40 | 66 |  |  |  | 53 | 84 | > 270 °C |  |  |  |  |  |  |  |  | 
7 | O=[N+]([O-])c1ccc(NCc2ccccn2)nc1Nc1ccc2cn[nH]c2c1 [Example 22, 2-(1H-6-indazolylamino)-3-nitro-6-(2-pyridyl)methylaminopyridine] |  |  | 49 | 60 | 81 |  |  |  |  |  | 256 °C (dec.) |  |  |  |  |  |  |  |  | 
8 | O=[N+]([O-])c1ccc(N2CCNCC2)nc1Nc1ccc2[nH]ncc2c1 [Example 23, 2-(1H-5-indazolylamino)-3-nitro-6-(1-piperazinyl)pyridine] | 55 | 92 | 51 | 66 | 96 |  |  | 35 |  |  | 270 °C (dec.) |  |  |  |  |  |  |  |  | 
